The values that follow come from patent US8618094B2, “Fused substituted aminopyrrolidine derivative” (Daiichi Sankyo Company, Limited, priority 2007, dated 2013).

Converted amounts (≈) assume the structure as drawn. Like-named read-outs stand apart in the source and are kept apart here.

The subject of one data set is P. mirabilis 08103. As to the kind of experiment: Antibacterial activity (MIC), standard method of the Japanese Society of Chemotherapy. The class given is cell-based. The settings on record: Proteus mirabilis. As for the experimental part:
(§1) Antibacterial activity of the compounds of the present invention was measured in accordance with the standard method specified by the Japanese Society of Chemotherapy.

A further data set deals with S. pneumoniae 104835. The data set is described as above. The class given is cell-based. Particulars: Streptococcus pneumoniae. Here is the method:
as §1

A further data set concerns E. faecalis 19433. The description is as above. It counts as cell-based. The settings on record: Enterococcus faecalis. As for the experimental part: as §1
The next data set has as its system E. coli NIHJ. The data set is described as above. The class given is cell-based. The settings on record: Escherichia coli. Here is the method: as §1
A further data set has as its system S. aureus 870307. The description is as above. It counts as cell-based. Particulars: Staphylococcus aureus. Here is the method: as §1
In a further data set the test system is E. cloacae 03400. Described as above. The class given is cell-based. Particulars: Enterobacter cloacae. Here is the method: as §1
The next data set relates to P. aeruginosa PAO1. The description is as above. The class given is cell-based. The settings on record: Pseudomonas aeruginosa. As for the experimental part: as §1
The next data set relates to H. influenzae ATCC49247. The description is as above. The class given is cell-based. Particulars: Haemophilus influenzae. As for the experimental part:
as §1

A further data set has as its system S. pneumoniae J24. The description is as above. The class given is cell-based. The settings on record: Streptococcus pneumoniae. As for the experimental part:
as §1

Another data set has as its system S. epidermidis 56500. The description is as above. The class given is cell-based. The settings on record: Staphylococcus epidermidis. Here is the method:
as §1

A further data set has as its system K. pneumoniae TYPE 1. The description is as above. It counts as cell-based. The settings on record: Klebsiella pneumoniae, TYPE1. As for the experimental part:
as §1

Data set [1] has as its system S. pyogenes JCM5674(ATCC12344). Described as above. It counts as cell-based. The settings on record: Streptococcus pyogenes. As for the experimental part: as §1
The next data set has as its system S. aureus FDA 209-P. The data set is described as above. The settings on record: Staphylococcus aureus, FDA209. The class given is cell-based. As for the experimental part: as §1
The subject of another data set is S. marcescens 10100. The description is as above. The class given is cell-based. Particulars: Serratia marcescens. As for the experimental part:
as §1

The subject of data set [2] is M(B). Caterrhalis ATCC25238. Described as above. The class given is cell-based. As for the experimental part: as §1
[3] abbreviates: H. influenzae ATCC49247 (first half of Table 2), read-out: MIC, H. influenzae ATCC49247.
Setting [4] is: M(B). Caterrhalis ATCC25238 (first half of Table 2), read-out: MIC, M(B). Caterrhalis ATCC25238.
The mark [5] stands for this setting: ATCC 25238 / ATCC 49247, H. influenzae ATCC25238 as printed (second half of Table 2), read-out: MIC, H. influenzae ATCC25238.
[6] abbreviates: M(B). Caterrhalis [sic] ATCC49247 (Table 2), read-out: MIC, M(B). Caterrhalis ATCC49247.

Regarding `COc1c(N2C[C@H]3C4(CC4)C[C@@]3(N)C2)c(F)cc2c(=O)c(C(=O)O)cn([C@@H]3C[C@@H]3F)c12` [Example 10, 7-[(1S,5R)-1-Amino-6-spirocyclopropane-3-azabicyclo[3.2.0]heptan-3-yl]-1-[(1R,2S)-2-fluorocyclopropyl]-6-fluoro-1,4-dihydro-8-methoxy-4-oxoquinoline-3-carboxylic acid], the melting point was 182 to 203 °C (dec.). For the same molecule, the MIC with P. mirabilis 08103 worked out at 0.05 µg/mL (≈ 0.116 µM). The molecule also returned an MIC against S. pneumoniae 104835 of 0.2 µg/mL (≈ 0.464 µM). This molecule also registered an MIC with E. faecalis 19433 of 0.1 µg/mL (≈ 0.232 µM). Also, in the data set with E. coli NIHJ, the MIC stood at 0.025 µg/mL (≈ 0.0579 µM). Further, the MIC against S. aureus 870307 is 0.1 µg/mL (≈ 0.232 µM). Moreover, the MIC against E. cloacae 03400 was determined as 0.025 µg/mL (≈ 0.0579 µM). For the same molecule, the MIC in the data set with P. aeruginosa PAO1 worked out at 0.78 µg/mL (≈ 1.81 µM). Further, the MIC in the data set with H. influenzae ATCC49247 (setting [3]) was determined as 0.012 µg/mL (≈ 0.0278 µM). The same molecule had an MIC against S. pneumoniae J24 of 0.025 µg/mL (≈ 0.0579 µM). In the data set with S. epidermidis 56500, the MIC came to 0.025 µg/mL (≈ 0.0579 µM). Moreover, in the data set on K. pneumoniae TYPE 1, the MIC amounted to 0.2 µg/mL (≈ 0.464 µM). This molecule also registered an MIC in data set [1] of 0.025 µg/mL (≈ 0.0579 µM). The molecule further registered an MIC with S. aureus FDA 209-P of 0.006 µg/mL (≈ 0.0139 µM). For the same molecule, the MIC against S. marcescens 10100 was 0.2 µg/mL (≈ 0.464 µM). For the same molecule, the MIC in data set [2] (setting [4]) came out at 0.025 µg/mL (≈ 0.0579 µM).

`COc1c(N2C[C@]3(N)CCC[C@]3(F)C2)c(F)cc2c(=O)c(C(=O)O)cn([C@@H]3C[C@@H]3F)c12` [Example 15, 7-[(1R,5S)-1-Amino-5-fluoro-3-azabicyclo[3.3.0]octan-3-yl]-6-fluoro-1-[(1R,2S)-2-fluorocyclopropan-1-yl]-1,4-dihydro-8-methoxy-4-oxoquinoline-3-carboxylic acid]: the melting point is 191 to 195 °C (dec.). This molecule also gave an MIC with P. mirabilis 08103 of 0.025 µg/mL (≈ 0.0572 µM). Besides, the MIC against S. pneumoniae 104835 was determined as 0.39 µg/mL (≈ 0.892 µM). Besides, the MIC in the data set on E. faecalis 19433 amounted to 0.2 µg/mL (≈ 0.457 µM). The molecule further displayed an MIC in the data set on E. coli NIHJ of 0.006 µg/mL (≈ 0.0137 µM). The MIC against S. aureus 870307 stood at 0.39 µg/mL (≈ 0.892 µM). The same molecule came in with an MIC in the data set on E. cloacae 03400 of 0.025 µg/mL (≈ 0.0572 µM). The molecule further registered an MIC against P. aeruginosa PAO1 of 0.78 µg/mL (≈ 1.78 µM). The MIC in the data set with H. influenzae ATCC49247 (setting [3]) is at most 0.003 µg/mL. In addition, in the data set on S. pneumoniae J24, the MIC was found to be 0.05 µg/mL (≈ 0.114 µM). In addition, the MIC in the data set on S. epidermidis 56500 came out at 0.05 µg/mL (≈ 0.114 µM). Besides, in the data set on K. pneumoniae TYPE 1, the MIC came to 0.05 µg/mL (≈ 0.114 µM). In [1], this molecule registered an MIC of 0.05 µg/mL (≈ 0.114 µM). This molecule returned an MIC against S. aureus FDA 209-P of 0.012 µg/mL (≈ 0.0274 µM). This molecule displayed an MIC in the data set with S. marcescens 10100 of 0.2 µg/mL (≈ 0.457 µM). For the same molecule, in data set [2] (setting [4]), the MIC was found to be 0.025 µg/mL (≈ 0.0572 µM).

For the molecule `COc1c(N2C[C@@H]3CCOC[C@@]3(N)C2)c(F)cc2c(=O)c(C(=O)O)cn([C@@H]3C[C@@H]3F)c12` [Example 43, 7-[(1S,6S)-1-Amino-8-aza-3-oxabicyclo[4,3,0]nonan-8-yl]-6-fluoro-1-[(1R,2S)-2-fluorocyclopropyl]-1,4-dihydro-8-methoxy-4-oxoquinoline-3-carboxylic acid], the MIC against P. mirabilis 08103 stood at 0.025 µg/mL (≈ 0.0574 µM); against S. pneumoniae 104835, 0.78 µg/mL (≈ 1.79 µM); against E. faecalis 19433 it was 0.2 µg/mL (≈ 0.459 µM); in the data set on E. coli NIHJ, 0.006 µg/mL (≈ 0.0138 µM); in the data set with S. aureus 870307, 0.2 µg/mL (≈ 0.459 µM); in the data set on E. cloacae 03400, 0.012 µg/mL (≈ 0.0276 µM). The MIC worked out at 0.78 µg/mL (≈ 1.79 µM) against P. aeruginosa PAO1; 0.006 µg/mL (≈ 0.0138 µM) in the data set on H. influenzae ATCC49247 (setting [5]); 0.1 µg/mL (≈ 0.23 µM) against S. pneumoniae J24; 0.05 µg/mL (≈ 0.115 µM) against S. epidermidis 56500; 0.05 µg/mL (≈ 0.115 µM) against K. pneumoniae TYPE 1; 0.05 µg/mL (≈ 0.115 µM) in data set [1]. The MIC with S. aureus FDA 209-P stood at 0.012 µg/mL (≈ 0.0276 µM); in the data set on S. marcescens 10100 it was 0.2 µg/mL (≈ 0.459 µM); in data set [2] (setting [6]) it was 0.025 µg/mL (≈ 0.0574 µM).

In the case of `C[C@H]1COc2c(N3CCN(C)CC3)c(F)cc3c(=O)c(C(=O)O)cn1c23` [LVFX, levofloxacin, reference compound], the MIC with P. mirabilis 08103 is 0.025 µg/mL (≈ 0.0692 µM); in the data set with S. pneumoniae 104835, over 6.25 µg/mL; in the data set with E. faecalis 19433 it was 0.78 µg/mL (≈ 2.16 µM); with E. coli NIHJ, 0.012 µg/mL (≈ 0.0332 µM); against S. aureus 870307, 6.25 µg/mL (≈ 17.3 µM); with E. cloacae 03400, 0.012 µg/mL (≈ 0.0332 µM). Moreover, the MIC was found to be 0.39 µg/mL (≈ 1.08 µM) with P. aeruginosa PAO1; 0.012 µg/mL (≈ 0.0332 µM) with H. influenzae ATCC49247 (setting [5]); 0.78 µg/mL (≈ 2.16 µM) with S. pneumoniae J24; 0.39 µg/mL (≈ 1.08 µM) with S. epidermidis 56500; 0.05 µg/mL (≈ 0.138 µM) against K. pneumoniae TYPE 1; 0.39 µg/mL (≈ 1.08 µM) in [1]. Moreover, the values for the MIC (in the data set on S. aureus FDA 209-P; with S. marcescens 10100; in data set [2] (setting [6])) were 0.1 µg/mL (≈ 0.277 µM), 0.05 µg/mL (≈ 0.138 µM) and 0.025 µg/mL (≈ 0.0692 µM), respectively.

As a reminder, the melting point is the temperature, or range, at which the solid turns liquid.
